{
  "source": "patent US20040018581A1",
  "about": "“Method for discovering substances for inhibiting enzymes” (Pharmacia and UpJohn Company, priority 2002, published 2004)",
  "key": {"W303-1A": {"system": "W303-1A", "experiment": "Growth inhibition of wild-type yeast W303-1A in YEPD with 1.5 M NaCl (OD 600)", "assay_type": "cell-based, Saccharomyces cerevisiae", "procedure": "(§1) Transformants growing on high salt plates were picked and grown in 18×150 mm glass culture tubes containing 10 ml liquid YEPD medium or liquid YEPD medium with 1.5 M NaCl. These tubes were inoculated with approximately 10^5 cells and cultured at 30° C. on a roller bottle. Growth rates were recorded in terms of optical density values at various times after inoculation. Growth rates were also monitored in 96-well plates using the indicator dye Alamar Blue (BioSource International, Camarillo, Calif.) as previously described by Klein et al., (1997b). In 96-well plate experiments, each well contained approximately 10^4 cells (in 20 ul medium) inoculated into 180 ul liquid YEPD medium or liquid YEPD medium containing 1.5 M NaCl. These plates were then incubated at 30° C. for 24 or 48 hours. At that time, 20 ul Alamar Blue solution was added to each well and the color allowed to develop for 5-30 minutes. Color changes in each well were noted after visual inspection and recorded.\nNitrophenide, a known inhibitor of MIPDH (Schmatz 1997), was used to validate the assay. The Δgpd1transformed with pYES21/m1pdh was grown in liquid YEPD medium, either supplemented with 1.5 M NaCal or not and containing one of 3 concentrations of nitrophenide (Aldrich Chemical Co.) dissolved in DMSO. Experiments were conducted in glass culture tubes prepared and processed as described above. […]"}, "[1]": {"system": "Δgpd1-pYES2/mt1D (Saccharomyces cerevisiae Δgpd1 expressing E. coli mt1D)", "experiment": "Growth inhibition of yeast transformant Δgpd1-pYES2/mt1D in liquid YEPD with or without 1.5 M NaCl (OD 600)", "assay_type": "cell-based", "procedure": "as §1\n(§2) Nitrophenide, a known inhibitor of MIPDH (Schmatz 1997), was used to validate the assay. The Δgpd1transformed with pYES21/m1pdh was grown in liquid YEPD medium, either supplemented with 1.5 M NaCal or not and containing one of 3 concentrations of nitrophenide (Aldrich Chemical Co.) dissolved in DMSO. Experiments were conducted in glass culture tubes prepared and processed as described above. Growth in nitrophenide-containing media was compared to growth in identical medium lacking nitrophenide by measuring and recording changes at OD 600 nm after 24, 48 or 72 hours in culture as described above.\n(§3) Test groups of each sample organism were inoculated into liquid cultures of YEPD and YEPD with 1.5 M NaCl. Rate of growth was estimated by recording OD 600 values at 24 hr intervals. All strains grew equally well in YEPD, but growth rates in YEPD with 1.5 M NaCl were distinctly different between transformants expressing mt1D or m1pdh and controls as shown in FIG. 3.\nNitrophenide was dissolved in DMSO and added to cultures at final concentrations of 1 μM, 2.5 μM or 10 μM. DMSO alone was also tested. […]"}, "[2]": {"system": "Δgpd1-pYES2/m1pdh (Saccharomyces cerevisiae Δgpd1 expressing Eimeria tenella m1pdh)", "experiment": "Growth inhibition of yeast transformant Δgpd1-pYES2/m1pdh in liquid YEPD with or without 1.5 M NaCl (OD 600)", "assay_type": "cell-based", "procedure": "as §1, §2, §3\nNitrophenide was dissolved in DMSO and added to cultures at final concentrations of 1 μM, 2.5 μM or 10 μM. DMSO alone was also tested. Little toxicity was apparent for DMSO or for nitrophenide in YEPD except at 10 μM, a concentration at which slowing of the rate of growth of Δgpd1-pYES2/mt1D and Δgpd1-pYES2/MIPDH was observed as shown in FIG. 4. However, in YEPD with 1.5 M NaCl, nitrophenide was toxic to Δgpd1-pYES2/mt1D and Δgpd1-pYES2/MIPDH at concentrations as low as 2.5 uM and abolishes growth at 10 uM as shown in FIG. 4. Nitrophenide was also toxic to W303-1A under these conditions, but this strain grew more slowly than either of the transformants under salt pressure. The difference in rate of growth made comparisons between strains difficult."}, "[3]": {"settings": "YEPD with 1.5 M NaCl, tested at 1, 2.5 and 10 μM"}, "[4]": {"settings": "YEPD without added NaCl, little toxicity at lower concentrations"}},
  "data": [
    {"smiles": "O=[N+]([O-])c1cccc(SSc2cccc([N+](=O)[O-])c2)c1", "note": "[Nitrophenide, nitrophenide]", "values": [
      {"measurement": "toxicity to growth", "setting": "W303-1A", "value": "toxic"},
      {"measurement": "concentration that abolishes growth", "setting": "[1]; YEPD with 1.5 M NaCl", "value": 10, "unit": "µM"},
      {"measurement": "lowest concentration toxic to growth", "setting": "[1]; [3]", "value": 2.5, "unit": "µM"},
      {"measurement": "concentration at which slowing of the rate of growth was observed", "setting": "[1]; [4]", "value": 10, "unit": "µM"},
      {"measurement": "concentration that abolishes growth", "setting": "[2]; YEPD with 1.5 M NaCl", "value": 10, "unit": "µM"},
      {"measurement": "lowest concentration toxic to growth", "setting": "[2]; [3]", "value": 2.5, "unit": "µM"},
      {"measurement": "concentration at which slowing of the rate of growth was observed", "setting": "[2]; [4]", "value": 10, "unit": "µM"},
      {"measurement": "effect on growth (FIG. 4)", "setting": "[2]; medium containing 1.5 M NaCl", "value": "dramatically suppressed"},
      {"measurement": "toxicity compared with 1.5 M NaCl medium (FIG. 4)", "setting": "[2]; medium with no additional NaCl", "value": "reduced"}
    ]}
  ]
}
